These compounds were tested against T1, delta-5-desaturase (Rattus norvegicus, UniProt Q920R3) (assay: Inhibitory activity on delta-5-desaturase (rat liver microsomal fraction, 14C-eicosatrienoic acid, TLC)). Settings: test compound at 10 μM, room temperature, 120 minutes.
T1 construct: the microsomal fraction of a rat river (10 μl), which had been diluted to 3 mg/ml; from tissue; host or cells: rat liver microsomal fraction
T1 sequence (Q920R3 whole entry): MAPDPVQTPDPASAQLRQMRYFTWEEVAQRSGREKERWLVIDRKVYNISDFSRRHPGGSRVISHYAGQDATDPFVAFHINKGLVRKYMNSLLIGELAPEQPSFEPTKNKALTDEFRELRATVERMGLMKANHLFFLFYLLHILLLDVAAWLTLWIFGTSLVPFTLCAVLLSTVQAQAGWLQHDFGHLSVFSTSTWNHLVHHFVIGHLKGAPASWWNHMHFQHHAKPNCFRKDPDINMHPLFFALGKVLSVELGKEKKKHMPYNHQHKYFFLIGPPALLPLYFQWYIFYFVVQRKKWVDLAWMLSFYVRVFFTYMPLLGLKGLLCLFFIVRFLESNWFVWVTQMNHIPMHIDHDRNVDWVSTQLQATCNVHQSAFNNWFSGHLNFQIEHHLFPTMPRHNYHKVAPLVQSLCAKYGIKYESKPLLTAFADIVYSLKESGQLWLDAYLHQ
Format: biochemical
How it was run: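 Rat liver microsomes (3 mg/ml before addition) incubated with test compound at 10 μM, NADH, ATP, CoA and 14C-eicosatrienoic acid in phosphate buffer pH 7.4 with BSA and glutathione, 120 min at room temperature. Lipids saponified, extracted, separated by reverse-phase TLC and imaged; % inhibition reported.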
`O=c1c2[nH]ccc2nc(SCCCS(=O)(=O)NCC(F)(F)F)n1-c1ccc(OCC(F)(F)F)cc1` [Example 107, 3-({4-Oxo-3-[4-(2,2,2-trifluoroethoxy)phenyl]-4,5-dihydro-3H-pyrrolo[3,2-d]pyrimidin-2-yl}sulfanyl)-N-(2,2,2-trifluoroethyl)propane-1-sulfonamide] showed an inhibition at 10 µM of 100%. `CCOCCCSc1nc2cc[nH]c2c(=O)n1-c1ccc(OCC(F)(F)F)cc1` [Example 81, 2-[(3-Ethoxypropyl)sulfanyl]-3-[4-(2,2,2-trifluoroethoxy)phenyl]-3,5-dihydro-4H-pyrrolo[3,2-d]pyrimidin-4-one] was tested, and the inhibition at 10 µM was 97%. `O=c1c2[nH]ccc2nc(SCCCN2CCOCC2)n1-c1ccc(OCC(F)(F)F)cc1` [Example 112, 2-[(3-Morpholin-4-ylpropyl)sulfanyl]-3-[4-(2,2,2-trifluoroethoxy)phenyl]-3,5-dihydro-4H-pyrrolo[3,2-d]pyrimidin-4-one] gave an inhibition at 10 µM of 102%. `O=c1c2[nH]ccc2nc(SCC(F)(F)F)n1-c1ccc(OCC(F)(F)F)cc1` [Example 103, 3-[4-(2,2,2-Trifluoroethoxy)phenyl]-2-[(2,2,2-trifluoroethyl)sulfanyl]-3,5-dihydro-4H-pyrrolo[3,2-d]pyrimidin-4-one] showed an inhibition at 10 µM of 100%. In the case of `CC(C)(O)CSc1nc2c(c(=O)n1-c1ccc(OCC(F)(F)F)cc1)CC(=O)N2` [Example 315, 2-[(2-Hydroxy-2-methylpropyl)sulfanyl]-3-[4-(2,2,2-trifluoroethoxy)phenyl]-5,7-dihydro-3H-pyrrolo[2,3-d]pyrimidine-4,6-dione], the inhibition at 10 µM is reported as 99%. `CS(=O)(=O)CCCSc1nc2c(c(=O)n1-c1ccc(OCC3CC3)cc1)CC(=O)N2` [Example 301, 3-[4-(Cyclopropylmethoxy)phenyl]-2-{[3-(methylsulfonyl)propyl]sulfanyl}-5,7-dihydro-3H-pyrrolo[2,3-d]pyrimidine-4,6-dione] showed an inhibition at 10 µM of 99%. Compound `O=C1Cc2c(nc(SCC3CC3)n(-c3ccc(OCC(F)(F)C(F)(F)F)cc3)c2=O)N1` [Example 323, 2-[(Cyclopropylmethyl)sulfanyl]-3-[4-(2,2,3,3,3-pentafluoropropoxy)phenyl]-5,7-dihydro-3H-pyrrolo[2,3-d]pyrimidine-4,6-dione] has an inhibition at 10 µM of 102%. `CSc1nc2[nH]ccc2c(=O)n1-c1ccc(OCC(F)(F)F)c(F)c1` [Example 237, 3-[3-Fluoro-4-(2,2,2-trifluoroethoxy)phenyl]-2-(methylsulfanyl)-3,7-dihydro-4H-pyrrolo[2,3-d]pyrimidin-4-one] was tested, and the inhibition at 10 µM was 98%. With `CCSc1nc2c(c(=O)n1-c1ccc(OCC(F)(F)F)c(F)c1)CC(=O)N2` [Example 307, 2-(Ethylsulfanyl)-3-[3-fluoro-4-(2,2,2-trifluoroethoxy)phenyl]-5,7-dihydro-3H-pyrrolo[2,3-d]pyrimidine-4,6-dione] the inhibition at 10 µM was 99%. `COCCSc1nc2c(c(=O)n1-c1ccc(OCC(F)(F)F)cc1)CC(=O)N2` [Example 325, 2-[(2-Methoxyethyl)sulfanyl]-3-[4-(2,2,2-trifluoroethoxy)phenyl]-5,7-dihydro-3H-pyrrolo[2,3-d]pyrimidine-4,6-dione] showed an inhibition at 10 µM of 105%. `CC(C)Sc1nc2c(c(=O)n1-c1ccc(OCC(F)(F)C(F)(F)F)cc1)CC(=O)N2` [Example 324, 2-[(1-Methylethyl)sulfanyl]-3-[4-(2,2,3,3,3-pentafluoropropoxy)phenyl]-5,7-dihydro-3H-pyrrolo[2,3-d]pyrimidine-4,6-dione] was tested, and the inhibition at 10 µM was 101%. `CC(C)(O)CCCSc1nc2cc[nH]c2c(=O)n1-c1ccc(OCC(F)(F)F)cc1` [Example 123, 2-[(4-Hydroxy-4-methylpentyl)sulfanyl]-3-[4-(2,2,2-trifluoroethoxy)phenyl]-3,5-dihydro-4H-pyrrolo[3,2-d]pyrimidin-4-one] gave an inhibition at 10 µM of 101%. Compound `CCOc1ccc(-n2c(SCCCC(=O)NCC#N)nc3cc[nH]c3c2=O)cc1` [Example 63, N-(cyanomethyl)-4-{[3-(4-ethoxyphenyl)-4-oxo-4,5-dihydro-3H-pyrrolo[3,2-d]pyrimidin-2-yl]sulfanyl}butanamide] has an inhibition at 10 µM of 98%. `O=C(CCCSc1nc2cc[nH]c2c(=O)n1-c1ccc(OCC(F)(F)F)cc1)N1CCOCC1` [Example 109, 2-[(4-Morpholin-4-yl-4-oxobutyl)sulfanyl]-3-[4-(2,2,2-trifluoroethoxy)phenyl]-3,5-dihydro-4H-pyrrolo[3,2-d]pyrimidin-4-one] was tested, and the inhibition at 10 µM was 101%. `NS(=O)(=O)CCCSc1nc2cc[nH]c2c(=O)n1-c1ccc(OCC(F)(F)F)cc1` [Example 120, 3-({4-Oxo-3-[4-(2,2,2-trifluoroethoxy)phenyl]-4,5-dihydro-3h-pyrrolo[3,2-d]pyrimidin-2-yl}sulfanyl)propane-1-sulfonamide] showed an inhibition at 10 µM of 101%. Work on `CC(C)Oc1nc2c(c(=O)n1-c1ccc(OCC(F)(F)C(F)(F)F)cc1)CC(=O)N2` [Example 310, 2-(1-Methylethoxy)-3-[4-(2,2,3,3,3-pentafluoropropoxy)phenyl]-5,7-dihydro-3H-pyrrolo[2,3-d]pyrimidine-4,6-dione] yielded an inhibition at 10 µM of 99%. In the case of `N#CC1(CSc2nc3c(c(=O)n2-c2ccc(OCC(F)(F)F)cc2)CC(=O)N3)CC1` [Example 339, 1-[({4,6-Dioxo-3-[4-(2,2,2-trifluoroethoxy)phenyl]-4,5,6,7-tetrahydro-3H-pyrrolo[2,3-d]pyrimidin-2-yl}sulfanyl)methyl]cyclopropanecarbonitrile], the inhibition at 10 µM is reported as 100%. For `CCn1ccc2c(=O)n(-c3ccc(OCC(F)(F)F)cc3)c(SCCCC(=O)NCCC#N)nc21` [Example 193], the inhibition at 10 µM was 100%. With `O=c1c2cc[nH]c2nc(OC2CCC2)n1-c1ccc(OCC(F)(F)F)cc1` [Example 247, 2-(Cyclobutyloxy)-3-[4-(2,2,2-trifluoroethoxy)phenyl]-3,7-dihydro-4H-pyrrolo[2,3-d]pyrimidin-4-one] the inhibition at 10 µM was 103%. `O=c1c2[nH]ccc2nc(SCCCS(=O)(=O)CC2CC2)n1-c1ccc(OCC(F)(F)F)cc1` [Example 165, 2-({3-[(Cyclopropylmethyl)sulfonyl]propyl}sulfanyl)-3-[4-(2,2,2-trifluoroethoxy)phenyl]-3,5-dihydro-4H-pyrrolo[3,2-d]pyrimidin-4-one] gave an inhibition at 10 µM of 99%. For `O=c1c2[nH]ccc2nc(SCCOC2CCOCC2)n1-c1ccc(OCC2CC2)cc1` [Example 147, 3-[4-(Cyclopropylmethoxy)phenyl]-2-{[2-(tetrahydro-2H-pyran-4-yloxy)ethyl]sulfanyl}-3,5-dihydro-4H-pyrrolo[3,2-d]pyrimidin-4-one], the inhibition at 10 µM was 98%. For `CSc1nc2c(c(=O)n1-c1ccc(OCC(F)(F)F)cc1)CC(=O)N2` [Example 267, 2-(Methylsulfanyl)-3-[4-(2,2,2-trifluoroethoxy)phenyl]-5,7-dihydro-3H-pyrrolo[2,3-d]pyrimidine-4,6-dione], the inhibition at 10 µM was 100%. Work on `CCSc1nc2cc[nH]c2c(=O)n1-c1ccc(OCC2CC2)c(Cl)c1` [Example 162, 3-[3-Chloro-4-(cyclopropylmethoxy)phenyl]-2-(ethylsulfanyl)-3,5-dihydro-4H-pyrrolo[3,2-d]pyrimidin-4-one] yielded an inhibition at 10 µM of 103%.

Same assay, conditions: test compound at 10 μM, room temperature, 120 minutes, 10 µM
For `O=c1c2cc[nH]c2nc(OC2CCC2)n1-c1ccc(OCC(F)(F)F)cc1` [Example 283, 2-(Cyclobutyloxy)-3-[4-(2,2,2-trifluoroethoxy)phenyl]-3,7-dihydro-4H-pyrrolo[2,3-d]pyrimidin-4-one], the “Inhibitory activity at 10 μM (%)” value was 101%.
